Laboratory results taken from patent publication US10928398B2, “Method for double staining colocalized nuclear-markers in histological lymphoid or bone marrow tissue sample” (CORNELL UNIVERSITY, priority 2008, dated 2021).

Key:
relapsed MM = experiment: Time to progression of relapsed MM patients receiving high-dose Dex in prospective clinical trials; format: in vivo, human
Description: High-dose pulsed dexamethasone (Dex) is one of the preferred treatments for relapsed MM patients and is currently the accepted gold standard against which investigational drugs are being tested. The predictors of outcome for relapsed patients while on Dexamthasone (Dex) treatment have not been well established. These predictors were prospectively evaluated using the Ki-67/MUM1 markers in patients with relapsed MM receiving Dex in consecutive, prospective clinical trials. Time to progression is defined as date of Dex initiation to date of progressive disease (PD). Sixteen patients with relapsed MM were evaluated.

[1] = test system: Ki67 expression in lymphoma cells; experiment: Double IHC PAX5/Ki67 with image analysis of lymph node biopsies of a B cell lymphoma patient in a phase I trial; format: in vivo, human; conditions: day 21 of therapy, 97.52% prior to treatment
Description: (§1) The double stained IHC slides were accessioned into the image analysis system and then loaded onto the machine in batches of 60. A robotic arm picked up each slide, one at a time, and loaded it onto the microscope. Via a motorized stage, the microscope moves and scans the slide, looking for tissue, the location of which varies slightly from slide to slide. Once it has found the tissue, the device scans the tissue and the camera records low resolution images. Using the scanned low resolution images, the inventor selected ten good areas for subsequent high resolution scanning and analysis. Numerous data points were then calculated for each of the ten areas per slide, and those data were averaged.
(§2) Since no counterstain was used in these slides, all identifiable cells are positive for at least one marker (e.g., in FIG. 3A, cells that express neither MUM1 nor pSRb are not visible). The characteristics used for the analysis (“classifiers”) were determined by a process whereby the inventor trained the software what was considered to be cells of each color. The software analyzed the high resolution images by first applying color parameters to decide if a nucleus was blue, red, or purple. It finds pixels within the appropriate range of color parameters as defined by hue, saturation, and intensity; objects too light or too dark, as determined by the classifiers, were not included in the analysis. […]

[2] = test system: Rb phosphorylation by Cdk4/6 at serine 807/811 (pS807/811Rb) in lymphoma cells; experiment: Double IHC PAX5/pS807/811Rb with image analysis of lymph node biopsies of a B cell lymphoma patient in a phase I trial; format: in vivo, human; conditions: day 21 of therapy, 84.08% before treatment
Description: as §1, §2

[3] = test system: MM cells (MUM1 positive) expressing Ki67 or pSRb; experiment: Double IHC MUM1/Ki67 or MUM1/pSRb of bone marrow biopsies of multiple myeloma patients in a phase I/II trial; format: in vivo, human; conditions: for Effect on cycling of MM cells (Ki67, pSRb): MM patient bone marrow, after treatment for 8 days
Experimental: In hematopoietic cancer biopsies, the non-cancer hematopoietic and immune cells must be excluded. In this example, multiple myeloma (MM) cells were identified in biopsy samples with an anti-MUM1 antibody and a detection system yielding a red signal. Specificity of MUM1 for myeloma cells in MM biopsies is estimated at ˜99%, thus excluding non-MM cells from the analysis. Double IHC was performed to detect cell cycle molecules in situ in MM cells. Each slide was stained for MUM1 (above) using Bond™ Polymer AP Red Detection System (DS9305, Leica, Bannockburn, Ill.) to afford a red pigment, and for the cell cycle molecule with Blue Alkaline Phosphate Substrate Kit (Vector Laboratories, Burlingame, Calif.) to afford a blue pigment. The cell cycle molecules, including Ki67 and pSRb, are nuclear. With these particular chromogen systems, double staining yielded MM cells with either a red nuclear signal if the cell was not proliferating or a purple nuclear signal if the MM cells were proliferating (positive for the cell cycle molecule in question). Cells with a blue nuclear signal ([…]) were non MM cells (FIG. 3A) that were proliferating.
To compute the percentage of MM cells expressing various cell cycle molecules, purple (MUM1+/cell cycle molecule+) cells were manually counted as a percentage of purple cells plus red (MUM1+/cell cycle molecule negative) cells. This manual method of analysis can be performed with any standard microscope.
To increase the accuracy, the same slides were first loaded in batches of 60 into an image analysis system, which performs photographic digital scans of each slide. Using an automatic image analyzer, the number of cells with a purple nucleus and those with a red nucleus in a given area was determined. The counts were performed in triplicate. The percentage of MM cells in the proliferative stage represented by the cell cycle molecule targeted is the number of purple cells divided by the number of purple and red cells. […] The intensity of positive staining was scored in comparison to expression in B cells from serial sections of a single tonsil control slide, run in parallel with the marrow slides. […]
IHC was performed on 4 micron sections of paraffin-embedded bone marrow tissues using a Leica Microsystems (Bannockburn, Ill.) Bond Max automated immunostainer. MUM1 MM cells were detected using an anti-MUM1 mouse monoclonal antibody (Mab) (Dako, Carpinteria, Calif.) and the Bond™ Polymer AP Red Detection System (Leica). Simultaneous expression of other proteins was detected with monoclonal antibodies to Ki-67, cyclin D1, cyclin D2, cyclin D3, MCM2, MCM7, skp2, p16, p18, p21, p27, Rb, c-myc, Cdk4 and Cdk6 and polyclonal rabbit antisera to either pSer^807/811, pSer^608 or pSer^780 of human Rb. […]

Myeloma = conditions: cited from earlier work

**Q.** What does the source list for `C[C@@H]1C[C@H]2[C@@H]3CCC4=CC(=O)C=C[C@]4(C)[C@@]3(F)[C@@H](O)C[C@]2(C)[C@@]1(O)C(=O)CO` [Dex, dexamethasone]?
**A.** Patients showing progressive disease (relapsed MM; 16 patients with relapsed MM, n=9): 56%; Median time to progressive disease (relapsed MM; patients with progressive disease, from Dex initiation): 87 days

**Q.** With `CC(=O)c1c(C)c2cnc(Nc3ccc(N4CCNCC4)cn3)nc2n(C2CCCC2)c1=O` [PD-332991] as the compound, how does the “Ki67 expression in % of lymphoma cells” value [1] read?
**A.** 23.13%

**Q.** What about the “pS807/811Rb found in % of lymphoma cells” value [2] of the same compound?
**A.** 2.14%

**Q.** And the “MM patients showing similar efficacy” value ([3]; 11/11 MM patients)?
**A.** 100%

**Q.** What about the “Effect on cycling of MM cells (Ki67, pSRb)” value [3] of the same compound?
**A.** great efficacy

**Q.** And the “Effect on cycling of MM cells (Ki67, pSRb)” value ([3]; listed as CDk4/6 inhibitor)?
**A.** no longer cycling

**Q.** And the “Cycling of MM cells after cessation of drug” value ([3]; biopsies 6 days after cessation of drug administration)?
**A.** returned to cycling in percentages comparable to what was observed prior to treatment

**Q.** Which “Responsiveness, % of patients” value (Myeloma) does the source give for `CC(C)C[C@H](NC(=O)[C@H](Cc1ccccc1)NC(=O)c1cnccn1)B(O)O` [PS-341(bortezomib), bortezomib] here?
**A.** 30%
